Earlier results on one molecule are cited in patent US20170072004A1, “COMPOSITIONS AND METHODS FOR IMPROVING THE BIOAVAILABILITY OF CURCUMINOIDS” (priority 2015, published 2017).

For this series the following is noted: rats, oral curcumin 2 g/kg, co-administration of piperine.

As for `COc1cc(/C=C/C(=O)CC(=O)/C=C/c2ccc(O)c(OC)c2)ccc1O` [curcumin, diferuloylmethane], the “Increase in systemic bioavailability following oral dosing” value is reported as not above 154%.
